Holding throughout (assay type): in vivo
Experiment [1] deals with larvae of house mosquito (Culex pipiens pallens Coquillett). The experiment can be described thus: Test Example 6: insecticidal activity to larvae of house mosquito. Particulars: 120 h. On the procedure: Insecticidal activity to larvae of house mosquito (Culex pipiens pallens Coquillett).
Test method: In a 200-ml beaker, was placed together with a feed 100 ml of a test composition diluted with deionized water to 10 ppm concentration. The test composition was infested with 20 first-instar larvae of house mosquito and the beaker was covered with a sheet of Japanese paper. The beaker was kept in a constant temperature cabinet at 25° C. Five days after the treatment, the dead-and-survival was inspected to calculate the mortality.

The test system of experiment [2] is larvae of green rice leafhopper (Nephotettix cincticeps Uhler). In words: Test Example 5: activity against larvae of green rice leafhopper. The note with it: 168 h, 400 ppm, second-instar larvae, 25° C., seven days after treatment, read-out: Mortality. On the procedure:
Activity against larvae of green rice leafhopper (Nephotettix cincticeps Uhler).
Testing method: Five rice seedlings of the 1.5 leaf age were dipped in a test composition of 400 ppm concentration for 30 seconds. After air-drying, the seedlings were placed in a glass tube containing 1 ml of water and infested with five second-instar larvae of green rice leafhopper. The glass tube was left standing in a constant temperature cabinet at 25° C. Seven days after the treatment, dead-and-survivalwas inspected to calculate the mortality (3-replication test).

Experiment [3] has as its system two-spotted spider mite (Tetranychus urticae Koch). In words: Test Example 3: activity to two-spotted spider mite. Particulars: 120 h, 1,000 ppm, 5 days after treatment. The source says: Activity to two-spotted spider mite (Tetranychus urticae Koch).
Testing method: Two-spotted spider mites were set free on the pot-planted soybean in a greenhouse. On the next day, a test composition of 1,000 ppm concentration was sprayed over the soybean by means of a spray gun. Two days or five days after the treatment, dead-and-survival was inspected to calculate the mortality.

In experiment [4] the test system is larvae of brown planthopper (Nilaparvata lugens Stahl). In words: Test Example 1: insecticidal activity against larvae of brown planthopper. The note with it: 120 h, third-instar larvae, 25° C., 5 days after treatment. On the procedure: Insecticidal activity against larvae of brown planthopper (Nilaparvata lugens Stahl).
Testing method: Five rice seedlings of the 1.5 leaf age were dipped in a test composition of 400 ppm concentration for 30 seconds. After air-drying, the seedlings were placed in a glass tube containing 1 ml of water and infested with five third-instar larvae of brown planthopper. The glass tube was left standing in a constant temperature cabinet at 25° C. and 5 or 7 days after the treatment, dead-and-survival was observed. Mortality was calculated from the results of 3-replication test.

Consider 40 molecules from patent publication US4159328A, “Tetrahydro-1,3,5-thiadiazin-4-one derivative” (Nihon Nohyaku Co., Ltd., priority 1977, dated 1979).

For `CCN=C1SCN(c2ccccc2)C(=O)N1CC` [Compound 125], the mortality (in general, the percentage killed) at 10 ppm in experiment [1] amounted to 80%.

For the molecule `CCC(C)N=C1SCN(c2ccccc2)C(=O)N1CC` (centres unmarked) [Compound 130], the mortality at 400 ppm in experiment [2] amounted to 100%.

In turn, `CN=C1SCN(c2ccc(Cl)cc2)C(=O)N1C` [Compound 188, 2-Methylimino-3-methyl-5-(p-chlorophenyl)tetrahydro-1,3,5-thiadiazin-4-one] gave a mortality at 1000 ppm in experiment [3] of 90%. Besides, the mortality at 400 ppm in experiment [2] and in experiment [4] was 100% each time. Besides, in experiment [1], the mortality at 10 ppm stood at 100%.

The molecule `CC(C)N1C(=O)N(c2ccccc2Cl)CSC1=NC(C)(C)CC(C)(C)C` [Compound 247] displayed a mortality at 1000 ppm in experiment [3] of 70%. In addition, the mortality at 400 ppm in experiment [4] stood at 90%. This molecule also had a mortality at 10 ppm in experiment [1] of 100%.

Regarding `CC(C)N=C1SCN(c2cccc(C(F)(F)F)c2)C(=O)N1C` [Compound 259], the mortality at 1000 ppm in experiment [3] was 100%. The mortality at 400 ppm in experiment [4] is 60%. In experiment [1], the mortality at 10 ppm came to 100%.

As for `CC(C)N=C1SCN(c2cccc(C(F)(F)F)c2)C(=O)N1C(C)C` [Compound 265, 2-Isopropylimino-3-isopropyl-5-(m-trifluoromethylphenyl)-tetrahydro-1,3,5-thiadiazin-4-one], the mortality at 10 ppm in experiment [1] turned out to be 100%.

The molecule `CCC(C)N=C1SCN(c2cccc(C(F)(F)F)c2)C(=O)N1C(C)C` (centres unmarked) [Compound 269] displayed a mortality at 400 ppm in experiment [4] of 80%. Besides, in experiment [1], the mortality at 10 ppm was found to be 100%.

As to `CC(C)N1C(=O)N(c2cccc(C(F)(F)F)c2)CSC1=NC(C)(C)C` [Compound 270], the mortality at 1000 ppm in experiment [3] is 70%. In experiment [4], this molecule displayed a mortality at 400 ppm of 60%. This molecule came in with a mortality at 10 ppm in experiment [1] of 100%.

Consider `CCC(C)N1C(=O)N(c2cccc(C(F)(F)F)c2)CSC1=NC(C)(C)C` (centres unmarked) [Compound 274], for which, in experiment [3], the mortality at 1000 ppm worked out at 100%. The mortality at 400 ppm in experiment [4] amounted to 100%. Moreover, in experiment [1], the mortality at 10 ppm came out at 100%.

`CCN1C(=O)N(c2ccc(F)cc2)CSC1=NC(C)(C)C` [Compound 280]: in experiment [3], the mortality at 1000 ppm worked out at 80%. The molecule further registered a mortality at 400 ppm in experiment [4] of 100%. Besides, the mortality at 10 ppm in experiment [1] came out at 90%.

In experiment [3], `Cc1ccccc1N1CSC(=NC(C)C)N(C(C)C)C1=O` [Compound 301, 2-Isopropylimino-3-isopropyl-5-(o-tolyl)-tetrahydro-1,3,5-thiadiazin-4-one] yielded a mortality at 1000 ppm of 100%. Besides, the mortality at 400 ppm in experiment [4] turned out to be 100%. The molecule also had a mortality at 10 ppm in experiment [1] of 90%.

`Cc1ccccc1N1CSC(=NC2CCCCC2)N(C2CCCCC2)C1=O` [Compound 307, 2-cyclohexylimino-3-cyclohexyl-5-(o-tolyl)-tetrahydro-1,3,5-thiadiazin-4-one]: the mortality at 1000 ppm in experiment [3] is 70%. Also, the mortality at 400 ppm in experiment [4] amounted to 70%. The molecule also returned a mortality at 10 ppm in experiment [1] of 100%.

Regarding `Cc1ccccc1N1CSC(=NCc2ccccc2)N(Cc2ccccc2)C1=O` [Compound 308], in experiment [3], the mortality at 1000 ppm was 100%. This molecule also returned a mortality at 400 ppm in experiment [4] of 60%. Further, in experiment [1], the mortality at 10 ppm came to 100%.

The molecule `CCN1C(=O)N(c2ccc(C)cc2)CSC1=NC(C)(C)C` [Compound 312] returned a mortality at 1000 ppm in experiment [3] of 100%. In addition, in experiment [4], the mortality at 400 ppm turned out to be 100%. Further, the mortality at 10 ppm in experiment [1] came to 100%.

Turning to `C=CCN1C(=O)N(c2ccc(C)cc2)CSC1=NC(C)C` [Compound 315], in experiment [3], the mortality at 1000 ppm came to 100%. This molecule also returned a mortality at 400 ppm in experiment [4] of 100%. For the same molecule, in experiment [1], the mortality at 10 ppm came to 100%.

In experiment [3], `CCCN1C(=O)N(c2ccc(C)cc2)CSC1=NC(C)(C)C` [Compound 317] had a mortality at 1000 ppm of 100%. In addition, the mortality at 400 ppm in experiment [4] was determined as 100%. Also, in experiment [1], the mortality at 10 ppm came to 100%.

`Cc1ccc(N2CSC(=NC(C)C)N(Cc3ccccc3)C2=O)cc1` [Compound 320] registered a mortality at 1000 ppm in experiment [3] of 70%. In experiment [4], this molecule showed a mortality at 400 ppm of 100%. For the same molecule, the mortality at 10 ppm in experiment [1] amounted to 70%.

As for `Cc1ccc(N2CSC(=NCc3ccccc3)N(Cc3ccccc3)C2=O)cc1` [Compound 321, 2-Benzylimino-3-benzyl-5-(p-tolyl)-tetrahydro-1,3,5-thiadiazin-4-one], in experiment [3], the mortality at 1000 ppm turned out to be 70%. This molecule yielded a mortality at 400 ppm in experiment [4] of 85%. This molecule also displayed a mortality at 10 ppm in experiment [1] of 70%.

In experiment [3], `CN=C1SCN(c2cccc(C)c2C)C(=O)N1C` [Compound 381] displayed a mortality at 1000 ppm of 70%. In experiment [4], the mortality at 400 ppm was found to be 60%.

For `CCN1C(=O)N(c2cccc(C)c2C)CSC1=NC1CCCCC1` [Compound 382, 2-cyclohexylimino-3-ethyl-5-(2,3-dimethylphenyl)tetrahydro-1,3,5-thiadiazin-4-one], the mortality at 1000 ppm in experiment [3] worked out at 100%. The mortality at 400 ppm in experiment [4] stood at 80%.

In experiment [3], `Cc1cccc(N2CSC(=NC(C)C)N(C(C)C)C2=O)c1C` [Compound 383] displayed a mortality at 1000 ppm of 100%. For the same molecule, the mortality at 400 ppm in experiment [4] amounted to 100%.

In turn, `Cc1cccc(N2CSC(=NC(C)(C)C)N(C(C)C)C2=O)c1C` [Compound 384, 2-t-butylimino-3-isopropyl-5-(2,3-dimethylphenyl)-tetrahydro-1,3,5-thiadiazin-4-one] registered a mortality at 1000 ppm in experiment [3] of 100%. The mortality at 400 ppm in experiment [4] was determined as 100%.

The molecule `CCC(C)N1C(=O)N(c2cccc(C)c2C)CSC1=NC(C)(C)C` (centres unmarked) [Compound 385] had a mortality at 1000 ppm in experiment [3] of 100%. Also, the mortality at 400 ppm in experiment [4] came out at 100%.

In the case of `Cc1cc(Cl)ccc1N1CSC(=NC(C)(C)C)N(C(C)C)C1=O` [Compound 387, 2-t-butylimino-3-isopropyl-5-(2-methyl-4-chlorophenyl)-tetrahydro-1,3,5-thiadiazin-4-one], the mortality at 1000 ppm in experiment [3] worked out at 100%. In addition, the mortality at 400 ppm in experiment [4] worked out at 100%.

As to `Cc1cccc(C)c1N1CSC(=NC(C)(C)C)N(C(C)C)C1=O` [Compound 388, 2-t-butylimino-3-isopropyl-5-(2,6-dimethylphenyl)tetrahydro-1,3,5-thiadiazin-4-one], the mortality at 1000 ppm in experiment [3] was 100%. The mortality at 400 ppm in experiment [4] was found to be 100%.

Regarding `CCN=C1SCN(c2c(C)cccc2C)C(=O)N1CC` [Compound 390], the mortality at 1000 ppm in experiment [3] was 80%. For the same molecule, in experiment [4], the mortality at 400 ppm turned out to be 60%.

`C=CCN=C1SCN(c2c(CC)cccc2CC)C(=O)N1CC=C` [Compound 394] displayed a mortality at 1000 ppm in experiment [3] of 80%. In addition, the mortality at 400 ppm in experiment [4] stood at 70%.

On to `CCC(C)N=C1SCN(c2ccc(Cl)cc2Cl)C(=O)N1C(C)CC` (centres unmarked) [Compound 400], for which the mortality at 1000 ppm in experiment [3] was determined as 70%. This molecule also gave a mortality at 400 ppm in experiment [4] of 100%.

In experiment [3], `CCC(C)N1C(=O)N(c2ccc(Cl)cc2Cl)CSC1=NC(C)(C)C` (centres unmarked) [Compound 401] displayed a mortality at 1000 ppm of 70%. The molecule also returned a mortality at 400 ppm in experiment [4] of 100%.

In the case of `CC(C)N=C1SCN(c2cccc(Cl)c2Cl)C(=O)N1C(C)C` [Compound 402], the mortality at 1000 ppm in experiment [3] was 100%. Besides, the mortality at 400 ppm in experiment [4] stood at 80%.

Consider `CC(C)N=C1SCN(c2cc(Cl)cc(Cl)c2)C(=O)N1C(C)C` [Compound 406], for which the mortality at 1000 ppm in experiment [3] is 60%. Besides, the mortality at 400 ppm in experiment [4] is 80%.

In turn, `CC(C)N1C(=O)N(c2cc(Cl)cc(Cl)c2)CSC1=NC(C)(C)C` [Compound 407] displayed a mortality at 1000 ppm in experiment [3] of 100%. Besides, in experiment [4], the mortality at 400 ppm is 100%.

With `CC(C)N1C(=O)N(c2cc(Cl)cc(Cl)c2)CSC1=NC(C)(C)CC(C)(C)C` [Compound 409], in experiment [3], the mortality at 1000 ppm is 100%. Moreover, in experiment [4], the mortality at 400 ppm amounted to 60%.

In the case of `CC(C)N=C1SCN(c2ccc(Cl)c(Cl)c2)C(=O)N1C(C)C` [Compound 415], the mortality at 1000 ppm in experiment [3] was 100%. In addition, the mortality at 400 ppm in experiment [4] was 100%.

Molecule `CC(C)N1C(=O)N(c2ccc(Cl)c(Cl)c2)CSC1=NC(C)(C)C` [Compound 416, 2-t-Butylimino-3-isopropyl-5-(3,4-dichlorophenyl)-tetrahydro-1,3,5-thiadiazin-4-one] had a mortality at 1000 ppm in experiment [3] of 100%. This molecule yielded a mortality at 400 ppm in experiment [4] of 100%.

As for `C=CCN1C(=O)N(c2ccc(Cl)c(Cl)c2)CSC1=NC(C)C` [Compound 421], in experiment [3], the mortality at 1000 ppm was 70%. This molecule also came in with a mortality at 400 ppm in experiment [4] of 60%.

Consider `CC(C)N1C(=O)N(c2ccc(Cl)c(Cl)c2)CSC1=NC1CCCCC1` [Compound 425], for which the mortality at 1000 ppm in experiment [3] was determined as 100%. In addition, in experiment [4], the mortality at 400 ppm was 60%.

`CCN1C(=O)N(c2cc(Cl)ccc2Cl)CSC1=NC(C)(C)C` [Compound 426] displayed a mortality at 1000 ppm in experiment [3] of 100%. The mortality at 400 ppm in experiment [4] was 70%.

Regarding `CC(C)N1C(=O)N(c2cc(Cl)ccc2Cl)CSC1=NC(C)(C)C` [Compound 427], the mortality at 1000 ppm in experiment [3] was 100%. In experiment [4], this molecule had a mortality at 400 ppm of 100%.

`CCC(C)N1C(=O)N(c2cc(Cl)ccc2Cl)CSC1=NC(C)(C)C` (centres unmarked) [Compound 428] displayed a mortality at 1000 ppm in experiment [3] of 100%. Moreover, the mortality at 400 ppm in experiment [4] stood at 100%.
